Experiments:
[1] = system: L-929; experiment: Growth inhibition of L-929 cells (MTT assay); format: cell-based; details: Mus musculus, L929, 120 h; L-929, murine connective tissue; MTT after 5 days
Experimental: (§1) Cell lines were obtained from the German Collection of Microorganisms and Cell Cultures (DSMZ). Cell lines 3Y1 and M1 (embryonal fibroblasts from 129/Ola × C57BL/6 mice, [30]) were a generous gift from Dr. S. Miyamoto, Fukoka, Japan, and Dr. P. F. Mühlradt, Braunschweig, Germany. All cell lines were cultivated under conditions recommended by the supplier. Growth inhibition was measured in microtiterplates. Aliquots of 120 μl of the suspended cells (50,000/ml) were given to 60 μl of a serial dilution of the inhibitor. After 5 days, growth was determined using the MTT assay.

[2] = system: M1; experiment: Growth inhibition of M1 cells (MTT assay); format: cell-based, mouse; details: 120 h; M1, mouse embryogenic fibroblast cell line; MTT after 5 days; read-out: IC50 growth inhibition
Experimental: as §1

[3] = system: 3Y1; experiment: Growth inhibition of 3Y1 cells (MTT assay); format: cell-based, rat; details: 120 h; 3Y1, rat embryogenic fibroblast cell line; MTT after 5 days; read-out: IC50 growth inhibition
Experimental: as §1

[4] = system: A-594; design: method as in PMID 10048565; details: A-594, human lung carcinoma; ref [15]; read-out: IC50 growth inhibition; cited from earlier work
[5] = system: KB-V1; experiment: Growth inhibition of multidrug-resistant KB-V1 cells (MTT assay), with or without verapamil; format: cell-based; details: 120 h; KB-V1, mdr human cervix carcinoma; without verapamil; MTT after 5 days
Experimental: The novel antibiotics archazolids and apicularens (Fig. 1) were checked for their impact on the cell growth of a variety of mammalian cell lines from different tissues (Tab. 1). […] Apicularen B was the only exception, with an average IC50 value two orders of magnitude higher. Growth inhibition of the multidrug-resistant cell line KB-V1 was also measured in the presence of verapamil. […] The data in Tab 1. show, that unlike the archazolids, the apicularens are poor substrates of Pgp. To visualize the impact of the antibiotics, PtK2 (potoroo kidney) cells were incubated with the inhibitors and stained for intact acidic lysosomes (Fig. 2). […] The same observation was made with KB-3-1 cells (data not shown). […] Unlike the cell lines listed in Tab. 1, the growth of PtK2 cells was not completely stopped. The same holds true for A-498 cells (human kidney carcinoma). Both cell lines grow epithelial-like. There was obviously a differential reaction of cell lines to V-ATPase inhibitors. For A-431 cells (human epidermoid carcinoma) a dependence on the expression of the EGF receptor was shown.
as §1

[6] = target: T1, V-ATPase holoenzyme from the midgut of the tobacco hornworm (Manduca sexta, UniProt P31403); experiment: Inhibition of purified V-ATPase holoenzyme activity; format: biochemical
T1 construct: purified V-ATPase holoenzyme from the midgut of the tobacco hornworm; from tissue; host or cells: midgut of fifth instar Manduca sexta larvae
T1 sequence (P31403 whole entry): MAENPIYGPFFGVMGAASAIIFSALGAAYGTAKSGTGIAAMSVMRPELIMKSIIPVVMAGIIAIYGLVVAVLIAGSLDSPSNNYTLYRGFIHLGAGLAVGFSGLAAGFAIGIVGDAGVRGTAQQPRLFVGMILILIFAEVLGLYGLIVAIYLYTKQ
Experimental: The V-ATPase holoenzyme was purified as published elsewhere. Preparation of highly purified membranes containing Na^+/K^+-ATPase from pig kidney followed the protocol of Jørgensen with the three main steps of differential centrifugation, incubation with SDS in the presence of ATP and sucrose density gradient centrifugation in a fixed angle rotor, and led to a specific enzyme activity which was in the same range as that reported by the authors. The resulting sample was stored frozen at -20°C. To prepare crude membrane extracts, the hearts of three mice were washed three times with an ice-cold buffer of pH 8.1 consisting of 0.25 M sucrose, 5 mM Tris-HCl, 5 mM EDTA, and 10 mM Pefabloc SC (Biomol), homogenized in 5 ml of this buffer and centrifuged at 4°C for 25 min at 233,000 × gmax in a fixed angle rotor. The resulting pellet was resuspended in 5 ml of a buffer of pH 7.5, consisting of 5 mM Tris-MOPS (3-morpholinopropanesulfonic acid), 10 mM NaCl, 10 mM Pefabloc SC, 9.6 mM 2-mercaptoethanol, 0.53 mM EGTA and 0.1 % Triton X-100. After an aliquot for protein determination had been taken, 10% bovine serum albumin (final concentration) was added to the suspension which was then stored on ice until the activity assays were run. Beef heart mitochondria were isolated by differential centrifugation, following the protocol of Smith by using a blender to homogenize the heart mince. The initial homogenization buffer consisted of 250 mM saccharose, 10 mM KH2PO4, 10 mM Tris, 2 mM EGTA, 2 mM MgCl2, pH 7.4, and further isolation procedures were carried out in the same medium without EGTA [24]. Submitochondrial particles were obtained by ultrasonic treatment of the mitochondria.
Standard V-ATPase assays with a final volume of 160 μl and a pH of 8.1 consisted of 3–4 μg of protein, 50 mM Tris-MOPS, 3 mM 2-mercaptoethanol, 1 mM MgCl2, 20 mM KCl, 0.003% C12E10, 20 mM NaCl, and 3 mM Tris-HCl. After 5 min of pre-incubation at 30°C with or without inhibitors, 1 mM Tris-ATP was added and after incubation for 2 min the reaction was stopped by placing the tube in liquid nitrogen. Assays using Na^+/K^+-ATPase were performed in 160 μl at pH 7.5 and contained 0.5 μg of protein, 50 mM Tris-MOPS, 5 mM imidazole, 0.2 mM EDTA, 4 mM MgCl2, 20 mM KCl and 100 mM NaCl. After 5 min of pre-incubation at 37°C with or without inhibitors, 3 mM Tris-ATP was added and after 1 min of incubation the reaction was stopped by placing the tube in liquid nitrogen. […] After 5 min of pre-incubation at 30°C with or without inhibitors, 1 mM Tris-ATP was added and after an incubation time of 10 min the reaction was stopped by placing the tubes in liquid nitrogen. ATPase assays with submitochondrial particles from beef heart were performed in a final volume of 1 ml and a pH of 8.0. The samples contained 9–12 μg protein, 50 mM Tris, 50 mM KCl and 2.5 mM MgCl2. After 5 min of preincubation with or without inhibitors, 5 mM ATP was added, and after an additional incubation time of 15 min the reaction was stopped by the addition of 0.4 ml of 20 % TCA.
Inorganic phosphate produced in the assays of V-ATPase, Na^+/K^+-ATPase and mouse heart F-ATPase was measured according the protocol of Wieczorek et al., while the determination of inorganic phosphate produced in the assays of beef heart F-ATPase followed the method of Fiske and Subarrow using ascorbic acid as reducing agent.
Fifth instar larvae of M. sexta (Lepidoptera, Sphingidae), weighing 6–8 g, were reared under long day conditions (16 h of light) at 27°C using a synthetic diet modified according to Bell et al.

[7] = system: bacterial growth; details: ref [11],[15],[17]; cited from earlier work

SMILES: CC/C=C\C=C/C(=O)N/C=C/CC1CC2CC(O[C@@H]3O[C@H](CO)[C@@H](O)[C@H](O)[C@H]3NC(C)=O)CC(Cc3cccc(O)c3C(=O)O1)O2 (some centres unmarked) [apicularen B]
- IC50 [1]: 0.62 µM
- IC50 [2]: 0.19 µM
- IC50 [3]: 0.31 µM
- IC50 [4]: 0.31 µM
- IC50 [5]: 1.6 µM
- IC50 per mg of protein, purified V-ATPase ([6]; equivalent of the half-maximal concentration): ~2.4 nmol per mg of protein
- IC50 ([6]; purified holoenzyme, 3–4 μg protein, pH 8.1, 30°C, read-out: half-maximal inhibition concentration of purified V-ATPase): ~0.06 µM
- inhibition of bacterial growth [7]: failed to inhibit
